Data taken from patent publication US6187802A, “Substituted 4-arylmethylene-2-imino-2,3-dihydrothiazoles and derivatives and their pharmaceutical use” (Knoll Aktiengesellschaft, priority 1997, dated 2001).
Where a name gives a salt, the structure may show the parent alone.

How the values were obtained:
[1] = molecular target: T1, 5-hydroxytryptamine (5-HT) reuptake sites (Rattus norvegicus, UniProt P31652); test: displacement of [3H]paroxetine from 5-HT reuptake sites, frontal cortical membranes; type: binding; settings: 10^-6 M test compound, [3H]paroxetine 30 pM, one test only, read-out: 5-HT uptake (% displacement of specific binding of tritiated ligand)
T1 construct: Frontal cortical tissue from the brains of male Sprague-Dawley rats; from tissue; host or cells: rat brain frontal cortex (crude synaptosomes in A2, washed membranes in A5)
T1 sequence (P31652 whole entry): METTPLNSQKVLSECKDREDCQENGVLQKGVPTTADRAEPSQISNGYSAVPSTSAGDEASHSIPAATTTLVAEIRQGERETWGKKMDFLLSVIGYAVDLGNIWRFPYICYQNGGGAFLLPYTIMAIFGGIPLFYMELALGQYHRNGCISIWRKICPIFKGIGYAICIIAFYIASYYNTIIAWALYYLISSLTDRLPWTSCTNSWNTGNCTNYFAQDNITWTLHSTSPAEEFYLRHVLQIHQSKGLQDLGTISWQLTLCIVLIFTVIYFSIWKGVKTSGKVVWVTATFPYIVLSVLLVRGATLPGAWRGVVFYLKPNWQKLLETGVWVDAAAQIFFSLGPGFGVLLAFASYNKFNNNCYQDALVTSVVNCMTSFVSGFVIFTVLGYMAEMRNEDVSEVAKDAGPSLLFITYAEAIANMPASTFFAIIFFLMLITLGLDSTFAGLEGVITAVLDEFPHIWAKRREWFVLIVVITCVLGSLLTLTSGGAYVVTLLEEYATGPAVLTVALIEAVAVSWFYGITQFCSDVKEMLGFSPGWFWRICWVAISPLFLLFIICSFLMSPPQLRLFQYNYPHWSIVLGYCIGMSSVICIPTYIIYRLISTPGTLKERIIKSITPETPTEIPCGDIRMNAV
Description: Frontal cortical tissue from the brains of male Charles River rats weighing 150-250 g was homogenised in ice-cold 0.25M sucrose (1:30 w/v) using a Kinematic polytron (speed setting 6 for 30 seconds) and centrifuged at 1000 g for 12 minutes. The supernatant was stored on ice and the pellet was resuspended in 0.25M sucrose (1:20 w/v) and centrifuged at 850 g for 10 minutes. Combined supernatants were diluted to 1:100 w/v with ice-cold 50 mM Tris-HCl, pH 7.5 (at 25° C.) containing 120 mM sodium chloride and 5 mM potassium chloride (Tris buffer) and centrifuged at 40,000 g for 10 minutes. The resulting pellet was resuspended in 50 mM Tris buffer (1:100 w/v) and recentrifuged at 40,000 g for 10 minutes. The final pellet was resuspended in 50 mM Tris buffer (equivalent to 2 mg wet weight of tissue/ml) and used immediately in the binding assay. All centrifugations were carried out at 4° C.
Membranes (1000 μl; equivalent to 2 mg wet weight of tissue/tube) were incubated with 200 μl [^3 H]paroxetine at a single concentration of 30 pM and 200 μl of distilled water (total binding) or 200 μl of test compound (10^-6 M) or 200 μl of citalopram (1 μM; non-specific binding) for 2 h at 22° C.
Membrane bound radioactivity was recovered by filtration under vacuum through Whatman GFIC filters using a Brandel cell harvester. Filters were rapidly washed with 16 ml ice-cold 50 mM Tris buffer and radioactivity determined by liquid scintillation counting (2 ml Packard MV Gold scintillator).
(§1) For each of these tests measuring the ability of compounds of Formula I to displace standard ligands from dopamine (DA), 5-hydroxytryptamine (5-HT) and noradrenaline (NA) reuptake sites in vitro, the percentage displacement of specific binding of tritiated ligand by 10^-6 M test compound was calculated in the following way:
(§2) Firstly, specific binding of tritiated ligand in the absence (A) and presence (B) of test compound was determined:
(§3) In the absence of compound:
(§4) A (dpm)=Total binding (dpm)-Non-specific binding (dpm)
(§5) In the presence of compound (10^-6 M):
(§6) B (dpm)=Binding at 10^-6 M (dpm)-Non-specific binding (dpm)
(§7) The specific binding of tritiated ligand in the presence (B) of compound was then converted to a percentage of specific binding of tritiated ligand in the absence (A) of compound:
(§8) % Specific binding at 10^-6 M=B (dpm)/A(dpm)×100
(§9) The percentage displacement of specific binding of trtiated ligand by the test compound (10^-6 M) was then obtained by subtraction of the percentage specific binding in the presence of compound from the percentage specific binding in the absence of compound, which is taken as the maximum binding and so equals 100%:
(§10) % Displacement at 10^-6 M=100-% Specific binding at 10^-6 M.
(§11) The values given below in Table 2 for examples 6 to 76 are % displacement of specific binding of tritiated ligand by 10^-6 M test compound and represent results from one test only. IA refers to <50% displacement.

[2] = molecular target: T2, noradrenaline (NA) reuptake sites (Rattus norvegicus, UniProt Q63380); test: displacement of [3H]nisoxetine from noradrenaline reuptake sites, frontal cortical membranes; settings: 10^-6 M test compound, [3H]nisoxetine 0.6 nM, one test only, read-out: NA uptake (% displacement of specific binding of tritiated ligand)
T2 construct: Frontal cortical tissue from the brains of male Sprague-Dawley rats; from tissue; host or cells: rat brain frontal cortex (crude synaptosomes in A3, washed membranes in A6)
T2 sequence (Q63380 1-617): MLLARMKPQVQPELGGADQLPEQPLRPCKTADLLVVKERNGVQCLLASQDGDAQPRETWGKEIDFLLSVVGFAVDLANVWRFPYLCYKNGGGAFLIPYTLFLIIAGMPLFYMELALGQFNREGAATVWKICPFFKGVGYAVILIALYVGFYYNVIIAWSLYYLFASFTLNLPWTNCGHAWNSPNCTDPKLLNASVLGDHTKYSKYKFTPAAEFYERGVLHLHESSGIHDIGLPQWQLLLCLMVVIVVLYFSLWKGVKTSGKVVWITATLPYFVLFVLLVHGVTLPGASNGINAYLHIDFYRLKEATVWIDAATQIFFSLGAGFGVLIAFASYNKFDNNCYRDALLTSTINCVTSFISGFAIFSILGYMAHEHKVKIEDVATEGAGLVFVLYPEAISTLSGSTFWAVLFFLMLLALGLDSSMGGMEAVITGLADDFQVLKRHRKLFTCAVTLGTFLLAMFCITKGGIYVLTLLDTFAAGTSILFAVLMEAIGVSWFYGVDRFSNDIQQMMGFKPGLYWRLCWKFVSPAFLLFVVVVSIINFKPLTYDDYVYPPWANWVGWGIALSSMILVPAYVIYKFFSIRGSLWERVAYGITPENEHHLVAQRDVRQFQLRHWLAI
Description: Frontal cortical tissue from the brains of male Charles River rats weighing 150-250 g was homogenised in ice-cold 50 mM Tris-HCl, pH 7.4 (at 25° C.) containing 120 mM sodium chloride and 5 mM potassium chloride (Tris buffer; 1:60 w/v) using a Kinematic polytron (speed setting 6 for 30 seconds) and centrifuged at 40,000 g for 10 minutes. The supernatant was discarded and the pellet rehomogenised in Tris buffer, 1:60 w/v, and centrifuged at 40,000 g for 10 minutes. This step was repeated twice more so that, in total, the brain tissue was homogenised and centrifuged four times. The final pellet was resuspended in 50 mM Tris-HCl, pH 7.4 containing 300 mM sodium chloride and 5 mM potassium chloride (equivalent to 25 mg wet weight of tissue/ml) and used immediately in the binding assay. All centrifugations were performed at 4° C.
Membranes (400 μl; equivalent to 10 mg wet weight of tissue/tube) were incubated with 50 μl [^3 H]nisoxetine at a single concentration of 0.6 nM and 50 μl of distilled water (total binding) or 50 μl of test compound (10^-6 M) or 50 μl of mazindol (1 μM; non-specific binding) for 4 h at 4° C.
Membrane bound radioactivity was recovered by filtration under vacuum through Skatron 11734 filters using a Skatron cell harvester. Filters were rapidly washed with ice-cold 50 mM Tris-HCl, pH 7.4 containing 120 mM sodium chloride and 5 mM potassium chloride (wash setting 9,9,0) and radioactivity determined by liquid scintillation counting (1 ml Packard MV Gold scintillator).
as §1, §2, §3, §4, §5, §6, §7, §8, §9, §10, §11

[3] = molecular target: T3, dopamine (DA) reuptake sites (Rattus norvegicus, UniProt P23977); test: displacement of [3H]GBR 12935 from dopamine reuptake sites, striatal membranes; type: binding; settings: 10^-6 M test compound, [3H]GBR 12935 1 nM, one test only, read-out: DA uptake (% displacement of specific binding of tritiated ligand)
T3 construct: Striatal tissue from the brains of male Charles River rats weighing 150-250 g; from tissue; host or cells: rat brain striatum (crude synaptosomes in A1, washed membranes in A4)
T3 sequence (P23977 whole entry): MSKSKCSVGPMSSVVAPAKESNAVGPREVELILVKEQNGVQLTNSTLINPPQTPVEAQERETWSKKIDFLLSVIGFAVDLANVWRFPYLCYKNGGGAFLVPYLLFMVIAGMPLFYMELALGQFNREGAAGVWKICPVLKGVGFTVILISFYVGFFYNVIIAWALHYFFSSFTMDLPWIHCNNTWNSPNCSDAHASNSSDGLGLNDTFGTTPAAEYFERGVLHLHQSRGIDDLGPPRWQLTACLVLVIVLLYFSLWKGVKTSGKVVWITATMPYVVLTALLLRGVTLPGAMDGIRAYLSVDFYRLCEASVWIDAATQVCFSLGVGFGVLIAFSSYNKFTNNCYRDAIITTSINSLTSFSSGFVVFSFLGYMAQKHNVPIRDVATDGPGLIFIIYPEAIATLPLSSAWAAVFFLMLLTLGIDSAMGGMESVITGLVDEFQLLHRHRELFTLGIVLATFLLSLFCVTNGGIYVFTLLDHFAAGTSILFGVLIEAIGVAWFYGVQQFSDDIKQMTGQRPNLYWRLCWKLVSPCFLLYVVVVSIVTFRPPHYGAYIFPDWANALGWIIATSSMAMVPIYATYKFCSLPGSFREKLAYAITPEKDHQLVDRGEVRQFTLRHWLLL
Description: Striatal tissue from the brains of male Charles River rats weighing 150-250 g was homogenised in ice-cold 0.32M sucrose (1:80 w/v) using a motor driven teflon pestle (12 strokes, 800 rpm) and centrifuged at 1000 g for 12 minutes. The supernatant was stored on ice and the pellet was resuspended in 0.32M sucrose (1:80 w/v) and centrifuged at 850 g for 10 minutes. Combined supernatants were diluted to 1:320 w/v with ice-cold 50 mM Tris-HCl, pH 7.4 (at 25° C.) containing 200 mM sodium chloride and 5 mM potassium chloride (Tris buffer) and centrifuged at 40,000 g for 10 minutes. The resulting pellet was resuspended in 10 ml of 50 mM Tris buffer, incubated at 37° C. for 10 min, diluted in 50 mM Tris buffer (1:320 w/v) and recentrifuged at 40,000 g for 10 minutes. The final pellet was resuspended in 50 mM Tris buffer (equivalent to 1.25 mg wet weight of tissue/ml) and used immediately in the binding assay. All centrifugations were carried out at 4° C.
Membranes (800 μl; equivalent to 1 mg wet weight of tissue/tube) were incubated with 100 μl [^3 H]GBR 12935 at a single concentration of 1 nM and 100 μl of distilled water (total binding) or 100 μl of test compound (10^-6 M) or 100 μl of mazindol (1 μM; non-specific binding) for 90 min at 4° C.
Membrane bound radioactivity was recovered by filtration under vacuum through Whatman GF/C filters, pre-soaked for 1 h in 0.5% polyethylenimine,using a Brandel cell harvester. Filters were rapidly washed with 16 ml of ice-cold 50 mM Tris-HCl, pH 7.4 and radioactivity determined by liquid scintillation counting (2 ml Packard MV Gold scintillator).
as §1, §2, §3, §4, §5, §6, §7, §8, §9, §10, §11

Structure (SMILES)	inhibition at 1 µM [1]	inhibition at 1 µM [2]	inhibition at 1 µM [3]
CCCN=c1scc(C2(c3ccc4ccccc4c3)CCC2)n1CCC [Example 38, 4-[-(2-Naphthyl)cyclobutyl]-3-propyl-2-propylimino-2,3-dihydrothiazole hydrobromide]	102%	95%	111%
CC(C)N=c1scc(C2(c3ccc4ccccc4c3)CCC2)n1C(C)C [Example 39, 3-Isopropyl-2-isopropylimino-4-[1-(2-naphthyl)cyclobutyl]-2,3-dihydrothiazole hydrobromide]	100%	58%	108%
CCCCN=c1scc(C2(c3ccc4ccccc4c3)CCC2)n1CCCC [Example 40, 3-Butyl-2-butylimino-4-[1-(2-naphthyl)cyclobutyl]-2,3-dihydrothiazole hydrobromide]	97%	< 50%	113%
CC(C)CN=c1scc(C2(c3ccc4ccccc4c3)CCC2)n1CC(C)C [Example 41, 3-lsobutyl-2-isobutylimino-4-[1-(2-naphthyl)cyclobutyl]-2,3-dihydrothiazolehydrobromide]	98%	79%	107%
C=CCN=c1scc(C2(c3ccc4ccccc4c3)CCC2)n1CC=C [Example 42, 3-Allyl-2-allylimino-4-[1-(2-naphthyl)cyclobutyl]-2,3-dihydrothiazole hydrobromide]	101%	93%	113%
c1ccc2cc(C3(c4csc(=NCC5CC5)n4CC4CC4)CCC3)ccc2c1 [Example 43, 3-Cyclopropylmethyl-2-cyclopropylmethylimino4-[1-(2-naphthyl)cyclobutyl]-2,3-dihydrothiazole hydrobromide]	101%	93%	113%
c1ccc(CN=c2scc(C3(c4ccc5ccccc5c4)CCC3)n2Cc2ccccc2)cc1 [Example 44, 3-Benzyl-2-benzylimino-4-[1-(2-naphthyl)cyclobutyl]-2,3-dihydrothiazole hydrobromide]	72%	< 50%	96%
Fc1ccc(CN=c2scc(C3(c4ccc5ccccc5c4)CCC3)n2Cc2ccc(F)cc2)cc1 [Example 45, 3-(4-Fluorobenzyl)-2-(4-fluorobenzylimino)-4-[1-(2-naphthyl)cyclobutyl]-2,3-dihydrothiazole hydrobromide]	59%	< 50%	96%
c1ccc(CCN=c2scc(C3(c4ccc5ccccc5c4)CCC3)n2CCc2ccccc2)cc1 [Example 46, 4-1-(2-Naphthyl)cyclobutyl]-3-phenethyl-2-phenethylimino-2,3-dihydrothiazole hydrobromide]	51%	< 50%	98%
c1cncc(CN=c2scc(C3(c4ccc5ccccc5c4)CCC3)n2Cc2cccnc2)c1 [Example 47, 4-[1-(2-Naphthyl)cyclobutyl]-3-(3-pyridylmethyl)-2-(3-pyridylmethylimino)-2,3-dihydrothiazole hydrobromide]	99%	92%	109%
c1coc(CN=c2scc(C3(c4ccc5ccccc5c4)CCC3)n2Cc2ccco2)c1 [Example 48, 3-Furfuryl-2-furfurylimino-4-[1-(2-naphthyl)cyclobutyl]-2,3-dihydrothiazolehydrobromide]	94%	< 50%	101%
c1ccc(N=c2scc(C3(c4ccc5ccccc5c4)CCC3)n2-c2ccccc2)cc1 [Example 49, 4-[1-(2-Naphthyl)cyclobutyl]-3-phenyl-2-phenylimino-2,3-dihydrothiazole hydrobromide]	56%	< 50%	69%
Cc1ccc(N=c2scc(C3(c4ccc5ccccc5c4)CCC3)n2-c2ccc(C)cc2)cc1 [Example 50, 4-[1-(2-Naphthyl)cyclobutyl]-3-(p-tolyl)-2-(p-tolylimino)-2,3-dihydrothiazole hydrobromide]	< 50%	< 50%	68%
Cc1ccccc1N=c1scc(C2(c3ccc4ccccc4c3)CCC2)n1-c1ccccc1C [Example 51, 4-[1-(2-Naphthyl)cyclobutyl)-3-(o-tolyl)-2-(o-tolylimino)-2,3-dihydrothiazole hydrobromide]	54%	< 50%	69%
Cc1ccc(N=c2scc(C3(c4ccc5ccccc5c4)CCC3)n2-c2ccc(C)cc2C)c(C)c1 [Example 52, 4-[1-(2-Naphthyl)cyclobutyl]-3-(2,4-xylyl)-2-(2,4-xylylimino)-2,3-dihydrothiazole hydrobromide]	< 50%	< 50%	74%
c1ccc2cc(C3(c4csc(=NC5CCCC5)n4C4CCCC4)CCC3)ccc2c1 [Example 53, 3-Cyclopentyl-2-cyclopentylimino-4-[1-(2-naphthyl)cyclobutyl]-2,3-dihydrothiazole hydrobromide]	71%	< 50%	80%
